This passage reports TGI results from PubChem BioAssay (NCI).

Some test systems named below: 786-0 renal; CCRF-CEM leukemia; COLO 205 colon; HCT-116 colon; HCT-15 colon; HOP-62 NSCLC; HT29 colon; NCI-H522 lung; OVCAR-3 ovarian; OVCAR-5 ovarian; OVCAR-8 ovarian; RXF 393 renal; SF-268 CNS; SK-MEL-28 melanoma; SR leukemia; UACC-62 melanoma; UO-31 renal.
Common to all, as to experiment: DTP human tumour cell line panel, 48 h

The structures appear in SMILES notation.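 In this assay, cells in 96-well plates receive the compound at five concentrations for 48 hours. Endpoints are linearly interpolated between the surrounding concentrations. TGI marks complete inhibition of growth.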

Take `O=C(CC(=O)c1ccccc1)C(=O)Nc1ccc(Cl)cc1`: the TGI with 786-0 renal was more than 100 µM; with CCRF-CEM leukemia, more than 100 µM; with COLO 205 colon, more than 66.1 µM; in the assay on HCT-116 colon, more than 61.5 µM; in the assay on HCT-15 colon, more than 59.7 µM; in the assay with HOP-62 NSCLC it was more than 100 µM. For the same molecule, the TGI in the assay on HT29 colon was more than 59.6 µM; in the assay on NCI-H522 lung, more than 100 µM; with OVCAR-3 ovarian it was more than 100 µM; in the assay on OVCAR-5 ovarian it was more than 100 µM; in the assay on OVCAR-8 ovarian it was more than 100 µM; with RXF 393 renal, more than 100 µM. For the same molecule, the TGI in the assay with SF-268 CNS, with SK-MEL-28 melanoma, in the assay on SR leukemia, in the assay on UACC-62 melanoma and in the assay with UO-31 renal was more than 100 µM in each case.

Consider `Cc1ccc(NC(=O)/C(C#N)=C/c2ccccc2)c(C)c1`, for which the TGI in the assay on 786-0 renal, in the assay on CCRF-CEM leukemia, in the assay with COLO 205 colon, in the assay with HCT-116 colon, in the assay with HCT-15 colon and in the assay with HOP-62 NSCLC was more than 100 µM in each case. Moreover, the TGI in the assay with HT29 colon, with NCI-H522 lung, in the assay on OVCAR-3 ovarian, in the assay on OVCAR-5 ovarian, in the assay with OVCAR-8 ovarian and with RXF 393 renal was more than 100 µM each time. Besides, the TGI with SF-268 CNS, with SK-MEL-28 melanoma, in the assay on SR leukemia, with UACC-62 melanoma and in the assay with UO-31 renal was more than 100 µM in each case.

Consider `CSC(=N)N1N=C2/C(=C/c3ccccc3)CCC[C@H]2[C@H]1c1ccccc1`, for which the TGI in the assay with 786-0 renal amounted to 20.3 µM; with CCRF-CEM leukemia, 8.2 µM; with COLO 205 colon, 2.93 µM; in the assay with HCT-116 colon it was 9.83 µM; in the assay with HCT-15 colon, 20.9 µM; in the assay with HOP-62 NSCLC it was 20.8 µM. For the same molecule, the total growth inhibition concentration (TGI) with HT29 colon amounted to 5.54 µM; in the assay with NCI-H522 lung it was 17.2 µM; with OVCAR-3 ovarian, 23.8 µM; in the assay with OVCAR-5 ovarian it was 14.7 µM; in the assay on OVCAR-8 ovarian it was 24.8 µM; in the assay on RXF 393 renal it was 9.85 µM. Also, the TGI is 37.9 µM with SF-268 CNS; 12 µM in the assay with SK-MEL-28 melanoma; 4.6 µM in the assay on SR leukemia; 23.9 µM with UACC-62 melanoma; 13.4 µM in the assay with UO-31 renal.

In the case of `Nc1nc2ncn(CC(O)CO)c2c(=O)[nH]1` (centres undefined), the TGI in the assay with 786-0 renal, in the assay on CCRF-CEM leukemia, with COLO 205 colon, in the assay on HCT-116 colon, in the assay with HCT-15 colon and in the assay with HOP-62 NSCLC was more than 100 µM throughout. For the same molecule, the TGI in the assay on HT29 colon, in the assay with NCI-H522 lung, in the assay on OVCAR-3 ovarian, in the assay on OVCAR-5 ovarian, in the assay on OVCAR-8 ovarian and in the assay on RXF 393 renal was more than 100 µM each time. Moreover, the TGI in the assay with SF-268 CNS, in the assay with SK-MEL-28 melanoma, in the assay with SR leukemia, in the assay on UACC-62 melanoma and in the assay on UO-31 renal was more than 100 µM each time.

Turning to `O=C(Nc1nc2ncn(CCO)c2c(=O)[nH]1)c1ccccc1`, the TGI with 786-0 renal, in the assay with CCRF-CEM leukemia, in the assay on COLO 205 colon, in the assay on HCT-116 colon, with HCT-15 colon and in the assay with HOP-62 NSCLC was more than 100 µM each time. Besides, the TGI in the assay on HT29 colon, in the assay with NCI-H522 lung, in the assay on OVCAR-3 ovarian, with OVCAR-5 ovarian, in the assay on OVCAR-8 ovarian and in the assay on RXF 393 renal was more than 100 µM throughout. In addition, the TGI in the assay with SF-268 CNS, with SK-MEL-28 melanoma, in the assay on SR leukemia, with UACC-62 melanoma and with UO-31 renal was more than 100 µM throughout.

With `CS(=O)(=O)C1(Br)S(=O)(=O)OCCOS1(=O)=O`, the concentration for total growth inhibition (TGI) in the assay on 786-0 renal, with CCRF-CEM leukemia, with COLO 205 colon, with HCT-116 colon, in the assay on HCT-15 colon and in the assay with HOP-62 NSCLC was more than 100 µM each time. Also, the total growth inhibition concentration (TGI) with HT29 colon, in the assay on NCI-H522 lung, in the assay on OVCAR-3 ovarian, in the assay with OVCAR-5 ovarian, with OVCAR-8 ovarian and in the assay with RXF 393 renal was more than 100 µM throughout. Further, the TGI in the assay on SF-268 CNS, in the assay on SK-MEL-28 melanoma, in the assay on SR leukemia, in the assay with UACC-62 melanoma and in the assay with UO-31 renal was more than 100 µM in each case.

Regarding `COC(=O)CCC(NC(=S)N/N=C(\C)c1cnccn1)C(=O)OC` (centres undefined), the TGI in the assay on 786-0 renal is more than 100 µM; in the assay with CCRF-CEM leukemia, 58.1 µM; with COLO 205 colon it was more than 100 µM; in the assay on HCT-116 colon, more than 100 µM; in the assay with HCT-15 colon, more than 100 µM; in the assay on HOP-62 NSCLC, more than 100 µM. The TGI was more than 100 µM in the assay on HT29 colon; 84 µM with NCI-H522 lung; more than 100 µM in the assay with OVCAR-3 ovarian; 79.7 µM in the assay on OVCAR-5 ovarian; more than 100 µM with OVCAR-8 ovarian; more than 100 µM in the assay on RXF 393 renal. Moreover, the TGI in the assay on SF-268 CNS was more than 100 µM; with SK-MEL-28 melanoma, more than 100 µM; in the assay on SR leukemia, more than 100 µM; in the assay with UACC-62 melanoma it was 90.2 µM; in the assay on UO-31 renal, more than 100 µM.
